One may read the Ki as a dissociation constant, usually derived from enzyme kinetics or from competition with a known ligand. A lower Ki goes with tighter binding.

In experiment [1] the test system is Rattus norvegicus. Briefly: Dose producing 10% decrease of heart rate in anesthetized rats (SHR). In kind it is functional.
For experiment [2], the system named is Rattus norvegicus. Description: Dose producing 30% decrease of blood pressure in anesthetized rats (SHR). Format: functional.
For experiment [3], the target named is T1, Adenosine A2 receptor (Rattus norvegicus, UniProt P29276+P30543).
Description: Binding affinity against adenosine A2 receptor in rat striatal membranes using [3H]NECA as radioligand
The target in experiment [4] is T2, Adenosine receptor A1 (Rattus norvegicus, UniProt P25099).
T2 sequence (P25099 whole entry): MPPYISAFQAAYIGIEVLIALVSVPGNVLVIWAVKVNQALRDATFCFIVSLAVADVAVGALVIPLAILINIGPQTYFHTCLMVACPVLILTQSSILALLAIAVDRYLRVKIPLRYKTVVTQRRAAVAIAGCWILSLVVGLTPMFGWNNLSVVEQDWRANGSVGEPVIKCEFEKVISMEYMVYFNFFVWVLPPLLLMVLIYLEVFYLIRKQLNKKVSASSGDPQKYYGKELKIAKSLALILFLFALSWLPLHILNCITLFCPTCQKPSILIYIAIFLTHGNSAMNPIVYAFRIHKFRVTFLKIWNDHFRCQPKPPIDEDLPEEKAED
Description: Binding affinity against adenosine A1 receptor in rat brain membranes using [3H]CHA as radioligand

Experiment [5] has as its target T1, Adenosine A2 receptor. Briefly: Binding affinity against adenosine A2 receptor in rat striatal membranes using [3H]NECA. In kind it is cell membranes, Striatum, Membrane.
Experiment [6] concerns the target T2, Adenosine receptor A1. Briefly: Binding affinity against adenosine A1 receptor in rat brain membranes using [3H]-CHA. In kind it is cell membranes.

For the compound `Nc1nc(Nc2ccccc2)nc2c1ncn2[C@@H]1O[C@H](CO)[C@@H](O)[C@H]1O`, the ED10 in the experiment with Rattus norvegicus [1] was over 100 µg/kg. Also, the ED30 with Rattus norvegicus [2] is 5.82 µg/kg. The compound also had an inhibition constant (Ki) at Adenosine A2 receptor [3] of 107 nM.
In the experiment on Rattus norvegicus [1], `COc1cc(OC)cc(C(CNc2ncnc3c2ncn3[C@@H]2O[C@H](CO)[C@@H](O)[C@H]2O)c2ccccc2C)c1` (some centres not stated) displayed an ED10 of over 100 µg/kg. The compound further displayed an ED30 in the experiment with Rattus norvegicus [2] of 12.1 µg/kg. The compound also registered a Ki on Adenosine receptor A1 [4] of 103 nM.
In the experiment on Rattus norvegicus [1], `Nc1nc(C#CCCO)nc2c1ncn2[C@@H]1O[C@H](CO)[C@@H](O)[C@H]1O` had an ED10 of 15.3 µg/kg. Besides, the ED30 in the experiment on Rattus norvegicus [2] came out at 2.53 µg/kg. Moreover, the figures for the inhibition constant (Ki) at Adenosine receptor A1 [4] and on Adenosine A2 receptor [3] were 81.4 nM and 40.1 nM, respectively.
Regarding `CCCCCCC#Cc1nc(N)c2ncn([C@@H]3O[C@H](CO)[C@@H](O)[C@H]3O)c2n1`, in the experiment on Rattus norvegicus [1], the ED10 was over 100 µg/kg. Further, in the experiment with Rattus norvegicus [2], the ED30 was 0.34 µg/kg. For the same compound, the inhibitory constant (Ki) on Adenosine receptor A1 [4] is 202 nM; at Adenosine A2 receptor [3], 12.1 nM.
The compound `Nc1nc(C#CCO)nc2c1ncn2[C@@H]1O[C@H](CO)[C@@H](O)[C@H]1O` showed an ED10 in the experiment with Rattus norvegicus [1] of 1.19 µg/kg. Also, in the experiment on Rattus norvegicus [2], the ED30 was found to be 0.95 µg/kg. For the same compound, the results for the inhibition constant (Ki) on Adenosine receptor A1 [4] and on Adenosine A2 receptor [3] were 10.1 nM and 20.5 nM, respectively.
Compound `CCCCCC#Cc1nc(N)c2ncn([C@@H]3O[C@H](CO)[C@@H](O)[C@H]3O)c2n1` registered an ED10 in the experiment on Rattus norvegicus [1] of over 100 µg/kg. The ED30 with Rattus norvegicus [2] came out at 0.14 µg/kg. The Ki turned out to be 170 nM on Adenosine receptor A1 [4] and 5.4 nM on Adenosine A2 receptor [3].
On the same counts, the results for `C[Si](C)(C)C#Cc1nc(N)c2ncn([C@@H]3O[C@H](CO)[C@@H](O)[C@H]3O)c2n1` are over 100 µg/kg, 1.15 µg/kg, 69.8 nM and 630 nM.
In the same order, the values of `CCCC#Cc1nc(N)c2ncn([C@@H]3O[C@H](CO)[C@@H](O)[C@H]3O)c2n1` are 41.5 µg/kg, 0.18 µg/kg, 154 nM and 7.5 nM.
As to `CCCCCCCC#Cc1nc(N)c2ncn([C@@H]3O[C@H](CO)[C@@H](O)[C@H]3O)c2n1`, in the experiment on Rattus norvegicus [1], the ED10 is over 100 µg/kg. In addition, the ED30 in the experiment with Rattus norvegicus [2] turned out to be 0.53 µg/kg. The Ki at Adenosine receptor A1 [4] is 257 nM; at Adenosine A2 receptor [3] it was 33.7 nM.
In turn, `CCCCOCC#Cc1nc(N)c2ncn([C@@H]3O[C@H](CO)[C@@H](O)[C@H]3O)c2n1` had an ED10 in the experiment on Rattus norvegicus [1] of 9.59 µg/kg. In the experiment with Rattus norvegicus [2], this compound registered an ED30 of 1.06 µg/kg. The results for the inhibitory constant (Ki) at Adenosine receptor A1 [4] and at Adenosine A2 receptor [3] were 18.5 nM and 10.6 nM, respectively.
On the same counts, the results for `CCOCCCC#Cc1nc(N)c2ncn([C@@H]3O[C@H](CO)[C@@H](O)[C@H]3O)c2n1` are over 100 µg/kg, 1.42 µg/kg, 244 nM and 12.8 nM.
On the same counts, the results for `COCC#Cc1nc(N)c2ncn([C@@H]3O[C@H](CO)[C@@H](O)[C@H]3O)c2n1` are 44.2 µg/kg, 23.8 µg/kg, 38.1 nM and 88.1 nM.
`CCCCCCCCC#Cc1nc(N)c2ncn([C@@H]3O[C@H](CO)[C@@H](O)[C@H]3O)c2n1` had an ED10 in the experiment on Rattus norvegicus [1] of over 100 µg/kg. In the experiment with Rattus norvegicus [2], this compound gave an ED30 of 0.46 µg/kg. In addition, the Ki on Adenosine receptor A1 [4] was 232 nM; on Adenosine A2 receptor [3], 32.8 nM.
As for `CCC#Cc1nc(N)c2ncn([C@@H]3O[C@H](CO)[C@@H](O)[C@H]3O)c2n1`, the ED10 in the experiment on Rattus norvegicus [1] came to 18.4 µg/kg. In addition, in the experiment with Rattus norvegicus [2], the ED30 is 0.48 µg/kg. Besides, the Ki on Adenosine receptor A1 [4] amounted to 186 nM; at Adenosine A2 receptor [3] it was 21.2 nM.
On the same counts, the results for `CCCCCCCCOCCC#Cc1nc(N)c2ncn([C@@H]3O[C@H](CO)[C@@H](O)[C@H]3O)c2n1` are over 100 µg/kg, 9.16 µg/kg, 1500 nM and 307 nM.
`CCCCCCC#Cc1nc(N)c2[nH]cnc2n1` registered an ED10 in the experiment with Rattus norvegicus [1] of over 100 µg/kg. In the experiment on Rattus norvegicus [2], this compound had an ED30 of over 100 µg/kg. In addition, the Ki at Adenosine receptor A1 [4] and on Adenosine A2 receptor [3] was over 567 nM throughout.
For `CCCCC#Cc1nc(N)c2ncn([C@@H]3O[C@H](CO)[C@@H](O)[C@H]3O)c2n1`, in the experiment with Rattus norvegicus [1], the ED10 was determined as 66.9 µg/kg. Further, the ED30 in the experiment with Rattus norvegicus [2] was 0.11 µg/kg. Further, the Ki on Adenosine receptor A1 [4] was 126 nM.
For `CCCCCCCCc1nc(N)c2ncn(C3O[C@H](CO)[C@@H](O)[C@H]3O)c2n1` (some centres not stated), the ED10 in the experiment on Rattus norvegicus [1] was over 100 µg/kg. The compound further gave an ED30 with Rattus norvegicus [2] of over 100 µg/kg. Besides, the Ki at Adenosine receptor A1 [4] and on Adenosine A2 receptor [3] was over 567 nM throughout.
In the experiment on Rattus norvegicus [1], `CCc1nc(N)c2ncn(C3O[C@H](CO)[C@@H](O)[C@H]3O)c2n1` (some centres not stated) returned an ED10 of over 100 µg/kg. The same compound came in with an ED30 in the experiment on Rattus norvegicus [2] of over 100 µg/kg. For the same compound, the inhibition constant Ki at Adenosine receptor A1 [4] and at Adenosine A2 receptor [3] was over 567 nM throughout.
In the experiment on Rattus norvegicus [1], `C#Cc1nc(N)c2ncn(C3O[C@H](CO)[C@@H](O)[C@H]3O)c2n1` (some centres not stated) had an ED10 of 5.76 µg/kg. For the same compound, the ED30 in the experiment on Rattus norvegicus [2] is 5.91 µg/kg. Further, the Ki on Adenosine receptor A1 [4] was 272 nM; on Adenosine A2 receptor [3], 37.6 nM.
In the same order, the values of `CCCOCCC#Cc1nc(N)c2ncn(C3O[C@H](CO)[C@@H](O)[C@H]3O)c2n1` (some centres not stated) are 79.9 µg/kg, 1.1 µg/kg, 128 nM and 10.2 nM.
For `CCCCCCCCCCC#Cc1nc(N)c2ncn(C3O[C@H](CO)[C@@H](O)[C@H]3O)c2n1` (some centres not stated), the Ki on Adenosine A2 receptor [5] worked out at 44.6 nM; at Adenosine receptor A1 [6] it was 267 nM. In the experiment with Rattus norvegicus [1], this compound displayed an ED10 of over 100 µg/kg. In the experiment with Rattus norvegicus [2], this compound yielded an ED30 of 2.05 µg/kg.
`CCCCCCC#Cc1nc(O)c2ncn(C3O[C@H](CO)[C@@H](O)[C@H]3O)c2n1` (some centres not stated) showed an ED10 in the experiment on Rattus norvegicus [1] of over 100 µg/kg. In addition, in the experiment on Rattus norvegicus [2], the ED30 is over 100 µg/kg. For the same compound, the inhibition constant Ki at Adenosine receptor A1 [4] and at Adenosine A2 receptor [3] was over 567 nM each time.
`CC(=O)c1nc(N)c2ncn(C3O[C@H](CO)[C@@H](O)[C@H]3O)c2n1` (some centres not stated) yielded an ED10 in the experiment on Rattus norvegicus [1] of 50.3 µg/kg. For the same compound, in the experiment with Rattus norvegicus [2], the ED30 came to 46.7 µg/kg. For the same compound, the Ki on Adenosine receptor A1 [4] and on Adenosine A2 receptor [3] was over 567 nM each time.
`CCCCCC/C=C\c1nc(N)c2ncn(C3O[C@H](CO)[C@@H](O)[C@H]3O)c2n1` (some centres not stated) came in with an ED10 in the experiment with Rattus norvegicus [1] of over 100 µg/kg. Also, the ED30 with Rattus norvegicus [2] turned out to be 5 µg/kg. The Ki at Adenosine receptor A1 [4] was over 567 nM; at Adenosine A2 receptor [3], 150 nM.
In the same order, the values of `CCCCCCC#Cc1nc2c(N)ncnc2n1C1O[C@H](CO)[C@@H](O)[C@H]1O` (some centres not stated) are over 100 µg/kg, over 100 µg/kg, over 567 nM and over 567 nM.
`CCCCCCC#Cc1ncnc2c1ncn2C1O[C@H](CO)[C@@H](O)[C@H]1O` (some centres not stated): the ED10 in the experiment with Rattus norvegicus [1] is over 100 µg/kg. The ED30 with Rattus norvegicus [2] is over 100 µg/kg. Besides, the Ki on Adenosine receptor A1 [4] and at Adenosine A2 receptor [3] was over 567 nM in each case.
For the compound `CCNC(=O)[C@H]1O[C@@H](n2cnc3c(N)nc(NCCc4ccc(CCC(=O)O)cc4)nc32)[C@H](O)[C@@H]1O` [CGS-21680], the ED10 in the experiment with Rattus norvegicus [1] was over 100 µg/kg. In the experiment with Rattus norvegicus [2], this compound gave an ED30 of 0.83 µg/kg.
With `OC[C@H]1O[C@@H](n2cnc3c(NC4CCCC4)ncnc32)[C@H](O)[C@@H]1O` [N6-CYCLOPENTYLADENOSINE], the ED10 in the experiment with Rattus norvegicus [1] is 0.14 µg/kg. Besides, the ED30 in the experiment with Rattus norvegicus [2] stood at 0.5 µg/kg. This compound yielded a Ki at Adenosine A2 receptor [3] of 421 nM.
In the experiment on Rattus norvegicus [1], `CCNC(=O)[C@H]1O[C@@H](n2cnc3c(N)ncnc32)[C@H](O)[C@@H]1O` [NECA] registered an ED10 of 0.35 µg/kg. In the experiment on Rattus norvegicus [2], this compound had an ED30 of 0.19 µg/kg.

Values taken from ChEMBL document CHEMBL1126140, “Nucleosides and nucleotides. 103. 2-Alkynyladenosines: a novel class of selective adenosine A2 receptor agonists with potent antihypertensive effects” (J Med Chem, 1992).
